“And” between values parts separate entries of the source, which are not always exact repeats. Identical values can stand only once.
How the values were obtained:
[1] = target: T1, E. coli gyrase GyrB^K447W (Escherichia coli, UniProt P0AES4+P0AES6, K447W); experiment: DNA gyrase cleavage assay (CC50, % cleaved DNA); type: biochemical; conditions: for % maximal cleavage: GyrBK447W, average of 3 independent assays
T1 construct: alternative cryo-EM approach involving full-length E. coli gyrase; 10-His (cleaved yes); Twin-Strep (cleaved yes); made in house
Protocol: (§1) For DNA gyrase supercoiling assays to characterize gyrase mutants, 15 µl reactions were set up containing 250 ng of relaxed DNA, E. coli gyrase supercoiling buffer (35 mM Tris–Cl pH 7.5, 24 mM KCl, 4 mM MgCl2, 2 mM DTT, 1.8 mM spermidine, 1 mM ATP, 6.0% (w/v) glycerol, and 0.1 mg ml^−1 BSA), gyrase subunits and inhibitors. Concentrations of enzyme and inhibitor are stated in the figure legends. Inhibitors were diluted in the following way to reduce the chance of precipitation: stock compound in 100% DMSO was diluted to 5 mM in 100% DMSO. This compound solution was diluted to 1 mM by stepwise addition of 1 µl of 50% DMSO with thorough mixing via pipetting after each addition. All subsequent dilutions up to 100 µM were performed in the same way using H2O. After this point, compounds were stable and could be diluted in the normal way. Reactions were incubated at 37 °C for 30 min before stopping with 15 µl chloroform:isoamyl alcohol (24:1 v/v) and 15 µl of STEB (40% (w/v) sucrose, 100 mM Tris–Cl pH 8, 10 mM EDTA, 0.5 mg ml^−1 bromophenol blue).
(§2) Cleavage assays were set up in the same way as supercoiling assays with some modifications. The concentration of enzyme was increased 4-fold relative to the supercoiling assay and reactions were incubated for 1 h before addition of 0.2% SDS and proteinase K (0.2 mg ml^−1) and further incubation at 37 °C for 30 min to trap cleavage complexes. Reactions were stopped in the same way as supercoiling assays.
(§3) Results were visualized by agarose gel electrophoresis: 1% agarose Tris-acetate-EDTA (TAE) gels were run without ethidium bromide (supercoiling) or with 10 µg ml^−1 ethidium bromide (cleavage) at 8 V cm^−1.
(§4) DNA cleavage gels were analysed using densitometry (ImageJ). Experiments were carried out in triplicate and expressed as mean ± s.d. Curves were fitted using OriginPro 2021 (Origin Lab) according to a modified Hill equation:1 y=cI+(cF−cI)[…]/(k^n+x^n) where y is the percentage of cleaved DNA, cI is the initial cleavage, cF is the final cleavage, k is the CC50 (the concentration of inhibitor that results in cleavage of 50% of DNA), n is a slope factor and x is the inhibitor concentration.

[2] = target: T2, E. coli gyrase GyrA^V70A (Escherichia coli, UniProt P0AES4+P0AES6, V70A); experiment: DNA gyrase cleavage assay (CC50, % cleaved DNA); type: biochemical; conditions: for % maximal cleavage: GyrAV70A, average of 3 independent assays; for EC50: GyrA^V70A; for % cleaved DNA Average: average of replicates
T2 construct: alternative cryo-EM approach involving full-length E. coli gyrase; 10-His (cleaved yes); Twin-Strep (cleaved yes); made in house
Protocol: as §1, §2, §3, §4

[3] = target: T3, E. coli gyrase GyrA^S83L (Escherichia coli, UniProt P0AES4+P0AES6, S83L); experiment: DNA gyrase cleavage assay (CC50, % cleaved DNA); type: biochemical; conditions: for % maximal cleavage: GyrAS83L, average of 3 independent assays; for EC50: GyrA^S83L, mean ± s.d. of triplicate; for % cleaved DNA Average: average of replicates
T3 construct: alternative cryo-EM approach involving full-length E. coli gyrase; 10-His (cleaved yes); Twin-Strep (cleaved yes); made in house
Protocol: as §1, §2, §3, §4

[4] = target: E. coli Topo IV (Escherichia coli, UniProt P0AFI2+P20083); experiment: E. coli Topo IV relaxation assay; type: biochemical; conditions: tested 0.1, 1, 10, 100 µM
Protocol: E. coli Topo IV relaxation assays were set up in the same way as supercoiling assays with some modifications. The substrate was negatively supercoiled DNA, E. coli Topo IV relaxation buffer (50 mM K-HEPES pH 7.6, 100 mM potassium glutamate, 10 mM magnesium acetate, 10 mM DTT, 1 mM ATP and 0.05 mg ml^−1 BSA) and reactions were incubated for 1 h. Reactions were stopped in the same way as supercoiling assays.
as §3
Supplementary Figure 11. Activity of albicidin and Albi-1/2/3 on E. coli topoisomerase IV. a. Plasmid relaxation activity of E. coli topo IV in the presence of albicidin, Albi-1, Albi-2 and Albi-3. First lane: negatively supercoiled pBR322; second lane: innate relaxation activity of E. coli topo IV (12.5 nM); third lane: effect of 20 µM CFX; subsequent lanes: effect of increasing compound concentration (0.1, 1, 10, 100 […]
higher concentration. b. Cleavage activity of E. coli topo IV in the presence of albicidin, Albi-1, Albi-2 and Albi-3. First lane: negatively supercoiled pBR322; second lane: innate cleavage activity of E. coli topo IV (15 nM); third lane: effect of 20 µM CFX; subsequent lanes: effect of increasing compound concentration (0.1, 1, 10, 100 µM). […]
concentration. All experiments were carried out in triplicates and representative gels […]
(1 picture or pasted object on this page, not shown here)

[5] = target: T4, WT E. coli gyrase (Escherichia coli, UniProt P0AES4+P0AES6); experiment: biochemical; type: biochemical; conditions: for % maximal cleavage: GyraseWT, average of 3 independent assays; for EC50: Gyrase^WT, mean ± s.d. of triplicate, read-out: CC50 (the source's name)
T4 construct: alternative cryo-EM approach involving full-length E. coli gyrase; 10-His (cleaved yes); Twin-Strep (cleaved yes); made in house
Protocol: as §1, §2, §3, §4

[6] = system: selected Gram-negative and Gram-positive microorganisms; experiment: MIC activity groups over all tested strains; type: cell-based; design: key: a: most potent; b: intermediate; least active; conditions: MIC panel
Protocol: MIC values were determined according to the ninth edition of the Approved Standard M07-A9. The test was carried out for six different bacterial strains (E. coli DSM 1116 (Gram-negative), E. coli BW25113 (Gram-negative), B. subtilis DSM 10 (Gram-positive), M. luteus DSM 1790 (Gram-positive), M. phlei DSM 750 (Gram-positive), S. typhimurium TA 100 (Gram-negative). First, 20 µl of glycerol stock of each strain was inoculated in 20 ml LB (Lennox) followed by incubation overnight at 37 °C, 200 r.p.m. The test inoculum was adjusted by the 0.5 McFarland Standard. Within 15 min of preparation, the adjusted inoculum suspension was diluted in MHBII so that each well contained approximately 5 × 10^5 c.f.u. ml^−1 in a final volume of 100 µl. Then, 95 µl of the inoculum was applied per well and 5 µl of the (diluted) albicidins was added. For dilutions, the dry powders were dissolved in dimethylsulfoxide (DMSO) with a concentration of 2.56 mg ml^−1, and the obtained stock solutions were further diluted in DMSO. Next, 5 µl of each antibiotic dilution was applied to the microdilution tray to reach final concentrations of 8 to 0.016 µg ml^−1. One row of each well plate served as a growth control without antibiotic and another row of the microdilution tray served as a sterility control (only MHBII media). The antimicrobial effect of the solvent was tested by adding 5 µl DMSO to several wells. Purity check and cell titre control were performed according to International Standard M07-A9 on Mueller–Hinton II Agar. Both microdilution trays and agar plates were incubated at 37 °C for 20 h.

Sequence of E. coli Topo IV (P0AFI2 whole entry): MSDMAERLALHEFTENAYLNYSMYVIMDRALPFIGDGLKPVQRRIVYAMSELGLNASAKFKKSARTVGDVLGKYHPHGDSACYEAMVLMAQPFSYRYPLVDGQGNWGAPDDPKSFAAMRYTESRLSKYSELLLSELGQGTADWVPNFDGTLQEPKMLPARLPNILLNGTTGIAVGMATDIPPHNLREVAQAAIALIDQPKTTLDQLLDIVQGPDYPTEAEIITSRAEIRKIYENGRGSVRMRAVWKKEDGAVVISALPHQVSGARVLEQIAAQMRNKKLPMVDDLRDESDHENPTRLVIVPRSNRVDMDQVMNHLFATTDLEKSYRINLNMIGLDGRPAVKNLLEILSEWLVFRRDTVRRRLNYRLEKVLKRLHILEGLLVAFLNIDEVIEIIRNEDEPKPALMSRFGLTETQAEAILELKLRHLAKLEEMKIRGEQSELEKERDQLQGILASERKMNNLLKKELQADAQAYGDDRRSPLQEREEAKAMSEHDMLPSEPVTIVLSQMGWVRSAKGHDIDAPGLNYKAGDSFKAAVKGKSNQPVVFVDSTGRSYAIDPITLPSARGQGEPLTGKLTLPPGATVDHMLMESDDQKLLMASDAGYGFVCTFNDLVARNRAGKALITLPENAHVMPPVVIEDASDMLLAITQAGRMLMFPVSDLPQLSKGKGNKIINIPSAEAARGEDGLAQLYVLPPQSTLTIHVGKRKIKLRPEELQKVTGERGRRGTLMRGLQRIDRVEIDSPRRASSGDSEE
Sequence of E. coli Topo IV (P20083 whole entry): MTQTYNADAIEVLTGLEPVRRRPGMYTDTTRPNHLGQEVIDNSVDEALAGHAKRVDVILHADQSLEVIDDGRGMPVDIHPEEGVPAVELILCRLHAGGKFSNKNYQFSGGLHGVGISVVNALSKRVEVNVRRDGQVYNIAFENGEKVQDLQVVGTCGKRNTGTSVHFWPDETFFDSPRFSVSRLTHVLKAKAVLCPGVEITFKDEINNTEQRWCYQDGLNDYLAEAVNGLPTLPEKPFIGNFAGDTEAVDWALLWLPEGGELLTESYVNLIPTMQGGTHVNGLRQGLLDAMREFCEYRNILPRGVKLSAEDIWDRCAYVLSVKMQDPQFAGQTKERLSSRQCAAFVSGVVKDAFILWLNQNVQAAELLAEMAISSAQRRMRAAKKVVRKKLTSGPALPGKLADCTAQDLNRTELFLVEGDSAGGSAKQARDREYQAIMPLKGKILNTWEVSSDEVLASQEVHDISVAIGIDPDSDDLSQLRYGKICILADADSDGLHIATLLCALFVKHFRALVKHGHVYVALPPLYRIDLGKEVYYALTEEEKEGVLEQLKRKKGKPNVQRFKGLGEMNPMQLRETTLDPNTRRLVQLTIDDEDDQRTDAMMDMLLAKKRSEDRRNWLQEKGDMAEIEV

Compound: COc1c(NC(=O)c2ccc(NC(=O)c3ccc(NC(=O)[C@H](Cc4c[nH]nn4)NC(=O)c4ccc(NC(=O)c5ccc6nc(C)ccc6c5)cc4)cn3)c(OC)c2O)ccc(C(=O)O)c1O [Albi-3]
- % maximal cleavage [1]: 69±2% and 69%
- % maximal cleavage [2]: 63±2%
- EC50 ([2]; mean ± s.d. of triplicate): 36 ± 8.6 nM
- % maximal cleavage [3]: 85±7%
- EC50 [3]: 16 ± 4 nM
- concentration required for full inhibition of Topo IV relaxation activity [4]: 10 µM
- % cleaved DNA Average ([5]; Albi-3 0.001 µM, WT Gyrase): 5.372%
- % cleaved DNA Average ([5]; Albi-3 0.005 µM, WT Gyrase): 11.5375%
- % cleaved DNA Average ([5]; Albi-3 0.01 µM, WT Gyrase): 23.6152%
- % cleaved DNA Average ([5]; Albi-3 0.05 µM, WT Gyrase): 37.3347%
- % cleaved DNA Average ([5]; Albi-3 0.1 µM, WT Gyrase): 57.4394%
- % cleaved DNA Average ([5]; Albi-3 0.5 µM, WT Gyrase): 62.8438%
- % cleaved DNA Average ([5]; Albi-3 1 µM, WT Gyrase): 66.0682%
- % cleaved DNA Average ([5]; Albi-3 5 µM, WT Gyrase): 61.2004%
- % cleaved DNA Average ([5]; Albi-3 10 µM, WT Gyrase): 61.7202%
- % maximal cleavage [5]: 66±4%
- EC50 [5]: 25 ± 5.3 nM

Compound: COc1c(NC(=O)c2ccc(NC(=O)c3ccc(NC(=O)[C@H](CC#N)NC(=O)c4ccc(NC(=O)/C(C)=C/c5ccc(O)cc5)cc4)cc3)c(OC)c2O)ccc(C(=O)O)c1O [Albicidin]
- % maximal cleavage [1]: 27±2%
- decrease of the maximal cleavage ([1]; GyrB^K447W vs WT gyrase): 3 fold
- increase in CC50 ([1]; GyrB^K447W vs WT gyrase, 60 min): 10 fold
- EC50 ([1]; GyrB^K447W, mean ± s.d. of triplicate): 452 ± 108 nM
- increase in CC50 ([2]; 1 h): > 25 fold
- % maximal cleavage [2]: 80±2%
- EC50 ([2]; cell prints its own unit): 1240 nM
- % cleaved DNA Average ([2]; albicidin 0.025 µM): 3.14%
- % cleaved DNA Average ([2]; albicidin 0.05 µM): 4.791%
- % cleaved DNA Average ([2]; albicidin 0.1 µM): 4.574%
- % cleaved DNA Average ([2]; albicidin 0.25 µM): 12.5575%
- % cleaved DNA Average ([2]; albicidin 0.5 µM): 14.0393%
- % cleaved DNA Average ([2]; albicidin 1 µM): 46.9741%
- % cleaved DNA Average ([2]; albicidin 5 µM): 65.2533%
- % cleaved DNA Average ([2]; albicidin 10 µM): 79.6585%
- % cleaved DNA Average ([2]; albicidin 50 µM): 77.0866%
- increase in CC50 ([3]; 1 h): 3 fold
- % maximal cleavage [3]: 68±5%
- EC50 [3]: 129 ± 43 nM
- % cleaved DNA Average ([3]; albicidin 0.0025 µM): 2.652%
- % cleaved DNA Average ([3]; albicidin 0.005 µM): 2.693%
- % cleaved DNA Average ([3]; albicidin 0.01 µM): 2.768%
- % cleaved DNA Average ([3]; albicidin 0.025 µM): 5.278%
- % cleaved DNA Average ([3]; albicidin 0.05 µM): 12.476%
- % cleaved DNA Average ([3]; albicidin 0.1 µM): 26.0782%
- % cleaved DNA Average ([3]; albicidin 0.5 µM): 63.6873%
- % cleaved DNA Average ([3]; albicidin 1 µM): 64.6552%
- % cleaved DNA Average ([3]; albicidin 5 µM): 67.9433%
- activity group (superscript letter) [6]: Albicidin^a
- concentration required for full inhibition of Topo IV relaxation activity [4]: 100 µM
- % maximal cleavage [5]: 81±2%
- EC50 [5]: 46 ± 3.7 nM
- % cleaved DNA Average ([5]; albicidin 0.0005 µM, average of replicates): 3.748%
- % cleaved DNA Average ([5]; albicidin 0.0025 µM, average of replicates): 5.277%
- % cleaved DNA Average ([5]; albicidin 0.005 µM, average of replicates): 6.761%
- % cleaved DNA Average ([5]; albicidin 0.01 µM, average of replicates): 11.8941%
- % cleaved DNA Average ([5]; albicidin 0.025 µM, average of replicates): 24.028%
- % cleaved DNA Average ([5]; albicidin 0.05 µM, average of replicates): 56.851%
- % cleaved DNA Average ([5]; albicidin 0.1 µM, average of replicates): 62.7758%
- % cleaved DNA Average ([5]; albicidin 0.25 µM, average of replicates): 75.7465%
- % cleaved DNA Average ([5]; albicidin 0.5 µM, average of replicates): 79.6286%
- % cleaved DNA Average ([5]; albicidin 1 µM, average of replicates): 76.3016%
- % cleaved DNA Average ([5]; albicidin 10 µM, average of replicates): 81.3635%
